According to ChEMBL document CHEMBL1151059, “Synthesis and x-ray structure of a potent superpositional analog of the enantiomeric forms of fluoxetine” (Bioorg Med Chem Lett, 1993):

Test: Tested in vitro for inhibition of Serotonin uptake
Assay type: functional

Structure (SMILES)	Activity
FC(F)(F)c1ccc(OC2(c3ccccc3)CCNCC2)cc1	580 nM
CNCCC(Oc1ccc(C(F)(F)F)cc1)c1ccccc1 (configuration not stated)	700 nM
